Among the data in article PMC9326368, “A Novel PARP Inhibitor YHP-836 For the Treatment of BRCA-Deficiency Cancers” (Frontiers in Pharmacology, 2022) are IC50 values, retold here.

One test addresses PARP2 (Homo sapiens, UniProt Q9UGN5). The experiment in a line: PARP2 enzymatic assay on histone-coated plate with NAD+, PAR product detection. Type of test: biochemical.
The target in a further test is PARP1 (Homo sapiens, UniProt P09874). Nature of the test: PARP1 enzymatic assay on histone-coated plate with NAD+, PAR product detection. The format is biochemical.
PARP1, sequence (P09874 2-1014): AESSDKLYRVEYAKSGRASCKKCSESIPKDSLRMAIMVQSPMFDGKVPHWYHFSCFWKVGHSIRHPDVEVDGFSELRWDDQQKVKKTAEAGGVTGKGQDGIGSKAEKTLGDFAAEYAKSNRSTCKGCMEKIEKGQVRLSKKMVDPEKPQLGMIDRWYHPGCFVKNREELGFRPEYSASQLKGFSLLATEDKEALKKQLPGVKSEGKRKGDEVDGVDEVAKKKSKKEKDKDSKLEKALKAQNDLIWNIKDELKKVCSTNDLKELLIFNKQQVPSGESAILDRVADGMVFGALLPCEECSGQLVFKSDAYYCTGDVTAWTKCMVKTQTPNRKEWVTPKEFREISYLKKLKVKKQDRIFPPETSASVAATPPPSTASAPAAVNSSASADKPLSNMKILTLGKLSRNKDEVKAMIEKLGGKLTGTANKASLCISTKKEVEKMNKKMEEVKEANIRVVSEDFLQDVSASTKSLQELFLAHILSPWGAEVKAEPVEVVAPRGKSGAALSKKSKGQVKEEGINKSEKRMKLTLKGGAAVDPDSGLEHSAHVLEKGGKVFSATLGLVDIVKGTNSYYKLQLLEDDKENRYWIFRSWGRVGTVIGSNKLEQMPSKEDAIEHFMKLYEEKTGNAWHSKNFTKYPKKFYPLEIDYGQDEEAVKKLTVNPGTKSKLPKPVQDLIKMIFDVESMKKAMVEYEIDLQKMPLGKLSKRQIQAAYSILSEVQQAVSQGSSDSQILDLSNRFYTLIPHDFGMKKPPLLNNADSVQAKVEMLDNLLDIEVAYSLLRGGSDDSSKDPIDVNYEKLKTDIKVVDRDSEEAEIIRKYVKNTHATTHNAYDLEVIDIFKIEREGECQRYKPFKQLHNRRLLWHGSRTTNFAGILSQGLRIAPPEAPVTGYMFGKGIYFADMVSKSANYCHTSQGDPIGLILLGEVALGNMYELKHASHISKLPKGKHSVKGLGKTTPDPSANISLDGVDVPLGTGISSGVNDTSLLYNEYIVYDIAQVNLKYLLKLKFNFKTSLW

PARP2, sequence (Q9UGN5 whole entry): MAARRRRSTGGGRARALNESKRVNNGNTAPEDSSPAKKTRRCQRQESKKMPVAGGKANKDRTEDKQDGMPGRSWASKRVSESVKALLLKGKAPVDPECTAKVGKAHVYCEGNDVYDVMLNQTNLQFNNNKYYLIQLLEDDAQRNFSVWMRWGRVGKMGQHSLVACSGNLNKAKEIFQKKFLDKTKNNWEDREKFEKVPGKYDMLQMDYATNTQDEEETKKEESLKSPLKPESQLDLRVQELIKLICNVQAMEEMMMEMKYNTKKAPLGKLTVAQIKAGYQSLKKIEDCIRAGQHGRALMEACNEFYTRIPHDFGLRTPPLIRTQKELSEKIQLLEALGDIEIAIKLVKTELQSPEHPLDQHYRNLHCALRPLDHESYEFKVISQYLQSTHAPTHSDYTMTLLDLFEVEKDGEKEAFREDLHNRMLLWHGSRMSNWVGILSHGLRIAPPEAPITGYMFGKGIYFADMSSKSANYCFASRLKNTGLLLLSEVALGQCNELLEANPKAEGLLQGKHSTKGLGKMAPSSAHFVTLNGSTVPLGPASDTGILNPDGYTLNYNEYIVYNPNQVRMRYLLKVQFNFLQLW

Regarding `O=C(c1cc(Cn2c(=O)[nH]c(=O)c3ccccc32)ccc1F)N1CCN(CC(F)(F)F)CC1` [YHP-836], the IC50 (as a rule, the concentration that gives 50% inhibition) was 3.62 nM on PARP2 and 6.33 nM against PARP1.
